Earlier results as cited in patent US7485427B1, “Photocleavable bioreactive agents” (The Trustees of Boston University, priority 1994, dated 2009).

Target: avidin (Gallus gallus, UniProt P02701)
Details: binding between avidin and biotin

Sequence of avidin (P02701 25-152): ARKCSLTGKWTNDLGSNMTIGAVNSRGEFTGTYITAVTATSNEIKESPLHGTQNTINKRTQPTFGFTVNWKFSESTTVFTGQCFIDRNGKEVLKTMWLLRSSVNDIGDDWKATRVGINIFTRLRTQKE

O=C(O)CCCC[C@@H]1SC[C@@H]2NC(=O)N[C@@H]21 [biotin]
association constant (Ka): about 10^15 M^−1
